Assay results as given in patent US20220332821A1, “DOSING REGIMEN AND COMBINATION THERAPIES FOR MULTISPECIFIC ANTIBODIES TARGETING B-CELL MATURATION ANTIGEN” (NOVARTIS AG, priority 2019, published 2022).
Entries after “also recorded” stand apart in the source; their conditions may differ.

What was measured:
[1] = test system: membrane BCMA on KMS11 cells; test: BCMA membrane expression by flow cytometry after GSI treatment of KMS11 cells; format: cell-based, human
Description: (§1) KMS11-Luc cells were cultured in a 96-well round bottomed plate (Corning #3799) at 1.5×10^5 cells per well in a final volume of 200 μL that included a 12-point, 5-fold serial dilution of AL-102 in RPMI1640 (Gibco #11875-085) supplemented with 20% FBS (Seradigm #1500-500) and L-glutamine (Thermo Fisher #25030-081). The highest starting concentration of AL-102 was 1 μM. Cells were incubated for 20 hours at 37° C./5% CO2. Cells were pelleted, supernatant collected for measurement of shed BCMA levels, and cell pellets stained for evaluation of BCMA membrane expression levels.
Cells were pelleted by centrifugation, and supernatants were transferred to a fresh plate and frozen at −80° C. for later sBCMA analysis by ELISA. For membrane BCMA analysis, cell pellets were resuspended in 100 μL BD Stain Buffer containing BSA (BD#554657) and stained with anti-BCMA-PE (Biolegend, clone 19F2 1.25 ul/test) and Fixable Viability Dye eFluor506 (Thermo Scientific, 1:800 dilution) for 30 minutes at 4° C. Samples were analyzed by flow cytometry on a BD LSR Fortessa instrument. FlowJo v10 software was used for analysis. The anti-BCMA antibody binding capacity (ABC) on KMS11 cells was determined using Quantum Simply Cellular beads (Bangs Laboratories) following a vendor supplied protocol. The ABC is an estimate of the quantity of receptors per cell.

[2] = test system: KMS11-Luc cells; test: RTCC assay with KMS11-Luc and human T cells, BSBM3 and AL-102 matrix, Example 9; format: cell-based
Description: To evaluate the ability of AL-102 to enhance the activity of BSBM3, a redirected T cell cytotoxicity (RTCC) assay was performed using human T cells and a BCMA-expressing multiple myeloma cell line treated with dose range combinations of BSBM3 and AL-102 in a 10×8 matrix fashion. Human T cells were enriched from peripheral blood of three healthy human donors. First, peripheral blood mononuclear cells (PBMCs) were fractionated from donor blood using a Ficoll-Paque PLUS density gradient (GE Healthcare #17-1440-02) in Leucosep tubes (Greiner #227290) and stored as viable frozen aliquots in liquid nitrogen. PBMC were thawed and Pan T cells were isolated by negative selection according to manufacturer's recommended protocol (Miltenyi #130-096-535). The unlabeled cell fraction, enriched for T cells, was collected by manual magnetic separation on LS columns (Miltenyi #130-042-401). T cells were prepared in T cell media (TCM) consisting of RPMI-1640 (Gibco #11875-085), 10% FBS (Seradigm #1500-500), 1% Pen/Strep (Life Technologies #15070063), 1% L-glutamine (Thermo Scientific #25030-081), 1% Non-Essential Amino Acids (NEAA) (Life Technologies #11140-050), Sodium Pyruvate (NaPy) (Life Technologies #11360-070), HEPES (Life technologies, Cat #15630080), 0.1% 2-Betamercaptoethanol (2-BME) (Life Technologies, Cat #21985-023). KMS11 multiple myeloma cell line was cultured in RPMI1640 supplemented with 20% FBS (Gibco #11875-085, Seradigm #1500-500). The target MM cell line KMS11 was transduced to constitutively express luciferase (KMS11-Luc), and used to measure cell viability/survival. KMS11-Luc cells were pelleted and resuspended in fresh media immediately prior to plating to remove any basal level of shed BCMA that may be present. 7,500 KMS11-Luc target cells in 10 μL TCM were added to wells of 384-well plates (Corning #3765). 10 μl of BSBM3 at a concentration of 10 nM was serially diluted 5-fold, and 10 μl of AL-102 at a concentration of 1000 nM was serially diluted 5-fold, and dispensed into corresponding wells of the assay plates. 15,000 T cells were added to corresponding wells of the assay plate in 10 μL TCM for an E:T of 2:1. The assay was incubated at 37° C./5% CO2 for 48 hr, followed by measurement of luciferase activity to indicate target cell viability (BrightGlo, Promega #E2650) following manufacturer's protocols. Plates were read on an Envision plate reader. Target cells only (KMS11-Luc) without T cells or antibodies served as control and represent 100% luciferase activity (100% viability). Data were plotted and analyzed using GraphPad Prism. EC50 values were calculated using sigmoidal, 4-parameter non-linear regression curve fit.

[3] = test system: BCMA shedding in KMS11 cells; test: Shed BCMA levels by ELISA after GSI treatment of KMS11 cells; format: cell-based, human; settings: 20 hours, serial dilution from 1 μM
Description: as §1
Soluble BCMA levels in supernatant were determined by ELISA following a vendor supplied protocol (R&D Systems #DY193). Briefly, recombinant human BCMA-Fc protein was included in the kit, and used to generate a standard curve. Collected samples were assayed and sBCMA concentrations extrapolated from the standard curve. Quantified values as determined by the kit were divided by 5.5 to correct for a molecular mass difference between BCMA-Fc fusion protein used in the kit as a standard curve (32,554.6 Da) and the mass of endogenously shed BCMA extra-cellular domain (5,899.3 Da). The results were analyzed using SoftMax Pro v5.4.1 and graphed in GraphPad Prism.

With `Cc1cccc2c1NC(=O)[C@@H](NC(=O)[C@H](CCC(F)(F)F)[C@H](CCC(F)(F)F)C(N)=O)N=C2c1cccc(F)c1` [AL-102] the “increase in cell surface BCMA expression” value ([1]; 1 μM AL-102 versus untreated KMS11 cells) was 20 fold, the “average BCMA antibody-binding capacity (ABC)” value ([1]; KMS11 cells, 1 μM AL-102, 20 hours, untreated ˜14,000) was ~285,000 and the “AL-102 concentration with minimal effect on BSBM3 potency” value ([2]; RTCC combination matrix) was no more than 0.32 nM. For the same compound, the “AL-102 concentration with moderate effect on BSBM3 potency” value ([2]; RTCC combination matrix) was 1.6 nM, the “AL-102 concentrations with maximum enhancement of BSBM3 potency” value ([2]; RTCC combination matrix) was no less than 8 nM and the “effect of AL-102 on RTCC potency of BSBM3 (in words)” value ([2]; combination with BSBM3) was “synergistically enhanced the RTCC potency of BSBM3; also recorded: enhanced the RTCC potency of BSBM3 in a dose dependent manner”. The “inhibition of BCMA shedding” value [3] was “effectively inhibited shedding of BCMA from KMS11 cells in a dose-dependent manner”.
